{"source": "patent US5958947A", "about": "“DNA-affinic hypoxia selective cytotoxins” (priority 1996, dated 1999)", "key": {"[1]": {"system": "V79 Chinese hamster lung cells", "assay": "Radiosensitization of V79 cells", "type": "cell-based", "settings": "for maximum SER value: hypoxic V79 cells, 100 μM for THNLA-1, non-toxic concentrations for others", "experimental": "Samples of V79 Chinese hamster lung cells used in the following experiments were prepared as follows. V79 cells, exponentially growing as monolayer cultures in RPMI 1640 medium (Mediatech) supplemented with 10% fetal calf serum, were trypsinized, centrifuged for 5 min, harvested, then suspended in 25 ml Erlenmeyer flasks fitted with rubber caps at 5×10^5 cells/ml (5 ml). Individual flasks either were shaken (100 rpm) at 37° C. under aerobic conditions or made hypoxic by gassing with a 95% N2 (nitrogen)/5% CO2 (carbon dioxide) humidified gas mixture for 1 hour.\nRadiosensitization studies were performed on V79 cells in a manner similar to the acute toxicity experiments, except that the survival fraction was determined after a predetermined radiation dose. […] One Gy is equal to 100 rads, wherein one rad is the quantity of ionizing radiation that results in the absorption of 100 ergs of energy per gram of irradiated material. Hypoxia was maintained throughout irradiation. […] Sensitization enhancement ratios (SER) were determined at a 10% survival level. […] The plotted points in FIGS. 3 and 4 represent the mean of 2 or 3 replicate experiments."}, "V79 cells [2]": {"system": "V79 cells", "assay": "Isoeffective to the oxygen dose (IsD)", "type": "cell-based, Chinese hamster", "settings": "Cricetulus griseus; for EC (isoeffective to oxygen at 7.5 Gy): read-out: Isoeffective to the oxygen dose at 7.5 Gy: IsD(7.5); for EC (isoeffective to oxygen at 20 Gy): read-out: Isoeffective to the oxygen dose at 20 Gy: IsD", "description": "The survival fraction under hypoxic conditions (plotted versus compound concentration) meets the aerobic survival fraction (radiation toxicity) at the IsD. The IsD value is a useful indicator of the overall potency of a compound as a sensitizer and cytotoxin of hypoxic cells. IsD is especially useful when comparing different compounds for hypoxic cytotoxicity and radiosensitizing efficacy.\nFIGS. 5 and 6 illustrate the IsD at 7.5 Gy (FIG. 5A) and 20 Gy (FIG. 5B). FIGS. 5A and 6A include a comparison to the prior art NLA-1 compound. V79 cells were irradiated at 7.5 Gy or 20 Gy after a 1 hour exposure under hypoxia (symbols) or air (straight line), at various drug concentrations. No toxicity or radiosensitization for any tested compound was observed under aerobic conditions over the tested concentration ranges. IsD values were calculated from the intersections of the survival fractions of the hypoxic curves with the survival fraction in air. All data points in FIGS. 5 and 6 represent the mean of two replicate experiments."}, "[3]": {"assay": "Partition coefficient in octanol/water", "type": "physicochemical", "experimental": "The partition coefficient of the hypoxia selective cytotoxins of the present invention were determined by the method of T. Fujita et al., J. Am. Chem. Soc., 86, 5175-5180 (1964), incorporated herein by reference."}, "supercoiled DNA": {"system": "supercoiled DNA", "assay": "DNA intercalation by agarose gel electrophoresis (mobility of supercoiled DNA)", "type": "binding", "settings": "electrophoretic gel, up to millimolar concentrations", "description": "An agarose gel electrophoresis technique was used to determine whether THNLA-1 intercalates DNA. Compounds that strongly intercalate DNA retard DNA mobility during agarose gel electrophoresis due to unwinding and extension of the dsDNA."}, "V79 cells [4]": {"system": "V79 cells", "assay": "Chemosensitization to L-PAM or cis-DDP in V79 cells", "type": "cell-based, Chinese hamster", "settings": "for chemosensitization to L-PAM or cis-DDP: V79 cells", "experimental": "L-PAM, also known as phenylalanine mustard and available from Sigma Chem. Co., St. Louis, Mo., first was dissolved in an ethanolic solution of HCl (0.5N). The ethanolic HCl solution was buffered with propylene glycol in a 1:9 ratio of ethanolic HCl solution to propylene glycol, and finally diluted 100 fold with suspension medium. cis-DDP, a platinum-based chemotherapeutic agent available from Sigma Chem. Co., St. Louis, Mo., was dissolved in water to a predetermined concentration.\nExperiments using a simultaneous addition of the sensitizer and chemotherapeutic agent for 1 hour at 37° C. under aerobic conditions were also performed.\nIn all experiments, controls for the hypoxic cytotoxicity of the sensitizer and the toxicity of the chemotherapeutic alone were included. Survival curves were normalized for the hypoxic cytotoxicity of sensitizer in order to determine the dose modification factor (DMF), i.e., the ratio of chemotherapeutic agent concentrations required to reduce cell survival to a predetermined level (e.g., 0.5) alone or in combination with a sensitizer. Synergism between the chemotherapeutic agent and the chemosensitizer was determined using the fractional product concept which is applied in instances of independent action of drugs, or by isobologramic analysis. The results of the chemosensitization studies are illustrated in FIGS. 12-15."}}, "note": "Several values for one entry are separate records, joined by “and”; a condition that tells them apart may be missing. Equal entries are not always repeated. Entries after “also recorded” stand apart in the source; their conditions may differ. Structures can show the parent of a compound that is named as a salt. Where two headings read alike, the source gives them in different places."}
{"smiles": "O=[N+]([O-])c1nccn1CCCNc1c2c(nc3ccccc13)CCSC2", "note": "[S-THNLA-1, 10-[3-(2-nitroimidazolyl)propylamino]-3,4-dihydro-1-H-thiopyrano[4,3-b]quinoline hydrochloride]", "values": [{"measurement": "EC (SER 1.6)", "setting": "[1]; Cricetulus griseus, V79, 1 h, read-out: Hypoxic radiosensitizing potency: C1.6, concentration yielding an SER of 1.6, hypoxic V79 cells", "result": "40 to 45", "unit": "µM"}, {"measurement": "EC (SER 1.6)", "setting": "[1]; Cricetulus griseus, V79, read-out: Intracellular concentration at C1.6: C1.6i, hypoxic radiosensitization, V79 cells (tables)", "result": 932, "unit": "µM"}, {"measurement": "EC (SER 1.6)", "setting": "[1]; concentration yielding an SER of 1.6, hypoxic V79 cells, hydrochloride, read-out: Hypoxic radiosensitizing potency: C1.6", "result": 40, "unit": "µM"}, {"measurement": "maximum SER value", "setting": "[1]", "result": "equal to OER"}, {"measurement": "therapeutic index relative to NLA-1", "setting": "[1]; in vitro ThI", "result": "better therapeutic index than NLA-1"}, {"measurement": "Therapeutic index (ThI): IC50/A,1h /C1.6", "setting": "[1]; in vitro, V79 cells", "result": "about 15"}, {"measurement": "EC (isoeffective to oxygen at 7.5 Gy)", "setting": "V79 cells [2]; V79, 1 h", "result": 60, "unit": "µM"}, {"measurement": "EC (isoeffective to oxygen at 20 Gy)", "setting": "V79 cells [2]; V79, 1 h", "result": "~103", "unit": "µM"}, {"measurement": "Partition coefficient in octanol/water: PCo/w", "setting": "[3]; hydrochloride", "result": "0.41 and 0.40"}, {"measurement": "effect on mobility of supercoiled DNA", "setting": "supercoiled DNA", "result": "do not affect the mobility of supercoiled DNA"}, {"measurement": "chemosensitization to L-PAM or cis-DDP", "setting": "V79 cells [4]", "result": "strong chemosensitizers"}, {"measurement": "solubility", "setting": "Water solubility", "result": "~9.5", "unit": "mM"}]}
{"smiles": "Cl.O=[N+]([O-])c1nccn1CCCNc1c2c(nc3ccccc13)CCCC2", "note": "[THNLA-1, 9-[3-(2-nitro-1-imidazolyl)propylamino]-1,2,3,4-tetrahydroacridine hydrochloride]", "values": [{"measurement": "radiosensitization of hypoxic V79 cells", "setting": "[1]; 1 hour at 37° C. before irradiation, hypoxic", "result": "Significant radiosensitization"}, {"measurement": "EC (SER 1.6)", "setting": "[1]; Cricetulus griseus, 1 h, concentration yielding an SER of 1.6, hypoxic V79 cells, read-out: Hypoxic radiosensitizing potency: C1.6", "result": 19, "unit": "µM"}, {"measurement": "EC (SER 1.6)", "setting": "[1]; Cricetulus griseus, hypoxic radiosensitization, V79 cells (tables), read-out: Intracellular concentration at C1.6: C1.6i", "result": 443, "unit": "µM"}, {"measurement": "EC (SER 1.6)", "setting": "[1]; Cricetulus griseus, hypoxic radiosensitization, V79 cells, read-out: Intracellular concentration for an SER of 1.6: C1.6i", "result": 443, "unit": "µM"}, {"measurement": "radiosensitization when administered immediately after irradiation", "setting": "[1]; V79 cells (hypoxic conditions), hydrochloride", "result": "radiosensitization also was not observed; also recorded: No radiosensitization was observed"}, {"measurement": "radiosensitization under aerobic conditions", "setting": "[1]; V79 cells, aerobic", "result": "Radiosensitization was not observed"}, {"measurement": "radioprotection under aerobic conditions", "setting": "[1]; aerobic", "result": "no radioprotection occurred"}, {"measurement": "maximum SER value", "setting": "[1]", "result": 3.1}, {"measurement": "EC (isoeffective to oxygen at 7.5 Gy)", "setting": "V79 cells [2]; V79, 1 h, 7.5 Gy, 1 hour at 37° C.", "result": "~40", "unit": "µM"}, {"measurement": "EC (isoeffective to oxygen at 20 Gy)", "setting": "V79 cells [2]; V79, 20 Gy, 1 hour at 37° C.", "result": "~78", "unit": "µM"}, {"measurement": "Partition coefficient in octanol/water: PCo/w", "setting": "[3]", "result": 0.14}, {"measurement": "logP", "setting": "[3]; read-out: Partition coefficient in octanol/water: PCo/w (converted)", "result": -0.854}, {"measurement": "effect on mobility of supercoiled DNA", "setting": "supercoiled DNA", "result": "do not affect the mobility of supercoiled DNA"}, {"measurement": "DMF value of L-PAM at 0.5 survival fraction", "setting": "V79 cells [4]; 10 μM THNLA-1, 2 hours hypoxic pretreatment, then L-PAM 1 hour aerobic", "result": 3.2}, {"measurement": "DMF value of cis-DDP at 0.5 survival fraction", "setting": "V79 cells [4]; 15 μM THNLA-1, 2 hours hypoxic pretreatment, then cis-DDP 1 hour aerobic", "result": 4.2}, {"measurement": "chemosensitization to L-PAM or cis-DDP", "setting": "V79 cells [4]; hydrochloride", "result": "powerful potentiator of chemotherapeutic agent toxicity; also recorded: strong chemosensitizers"}, {"measurement": "potentiation of L-PAM or cis-DDP under aerobic conditions", "setting": "V79 cells [4]; aerobic exposure", "result": "no potentiation occurred"}, {"measurement": "DMF compared with NLA-1", "setting": "V79 cells [4]; cis-DDP or L-PAM combination, about 30% of the IC50/H,1h, hydrochloride", "result": "slightly greater than the DMF value obtained using a combination including NLA-1; also recorded: significantly more efficacious chemosensitizer than NLA-1"}, {"measurement": "interaction with L-PAM or cis-DDP", "setting": "V79 cells [4]; hypoxic pretreatment, isobologram and fractional product concept, hydrochloride", "result": "synergistic interaction; also recorded: dramatic decrease in survival fraction; also recorded: unexpected synergistic effect"}, {"measurement": "solubility", "setting": "Water solubility", "result": "~12", "unit": "mM"}]}
